# Source: PubChem BioAssay (NCI)
#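 GI50 marks 50% less growth. TGI is the concentration that stops growth completely.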
# Columns and labels:
# Assay in all cases: NCI-60 cell line screen, 384-well format
# NCI-H522 lung = test system: NCI-H522 lung
# 786-0 renal = test system: 786-0 renal
# KM12 colon = test system: KM12 colon
# T-47D breast = test system: T-47D breast
# SK-MEL-2 melanoma = test system: SK-MEL-2 melanoma
# LOX IMVI melanoma = test system: LOX IMVI melanoma
# OVCAR-8 ovarian = test system: OVCAR-8 ovarian
# HL-60(TB) leukemia = test system: HL-60(TB) leukemia
# SN12C renal = test system: SN12C renal
# U251 glioblastoma = test system: U251 glioblastoma
# SK-MEL-5 melanoma = test system: SK-MEL-5 melanoma
# CAKI-1 renal = test system: CAKI-1 renal
# BT-549 breast = test system: BT-549 breast
# MDA-MB-231 breast = test system: MDA-MB-231 breast
# HOP-92 NSCLC = test system: HOP-92 NSCLC
# OVCAR-5 ovarian = test system: OVCAR-5 ovarian
# SF-539 CNS = test system: SF-539 CNS
# K-562 leukemia = test system: K-562 leukemia
# COLO 205 colon = test system: COLO 205 colon
# HCT-116 colon = test system: HCT-116 colon
# DU-145 prostate = test system: DU-145 prostate
# HCC-2998 colon = test system: HCC-2998 colon
# NCI-H23 lung = test system: NCI-H23 lung
# MALME-3M melanoma = test system: MALME-3M melanoma
# SK-MEL-28 melanoma = test system: SK-MEL-28 melanoma
# MDA-MB-435 melanoma = test system: MDA-MB-435 melanoma
# MOLT-4 leukemia = test system: MOLT-4 leukemia
# RXF 393 renal = test system: RXF 393 renal
# TK-10 renal = test system: TK-10 renal
# OVCAR-4 ovarian = test system: OVCAR-4 ovarian
# SF-295 CNS = test system: SF-295 CNS
# NCI-H226 lung = test system: NCI-H226 lung
# A498 renal = test system: A498 renal
# UO-31 renal = test system: UO-31 renal
# NCI-H322M lung = test system: NCI-H322M lung
# UACC-62 melanoma = test system: UACC-62 melanoma
# HCT-15 colon = test system: HCT-15 colon
# NCI-H460 NSCLC = test system: NCI-H460 NSCLC
# MDA-MB-468 breast = test system: MDA-MB-468 breast
# IGROV1 ovarian = test system: IGROV1 ovarian
# PC-3 prostate = test system: PC-3 prostate
# HT29 colon = test system: HT29 colon
# MCF7 breast = test system: MCF7 breast
# CCRF-CEM leukemia = test system: CCRF-CEM leukemia
# RPMI-8226 leukemia = test system: RPMI-8226 leukemia
# SNB-19 CNS = test system: SNB-19 CNS
# M14 melanoma = test system: M14 melanoma
# SW-620 colon = test system: SW-620 colon
# A549 NSCLC = test system: A549 NSCLC
# SK-OV-3 ovarian = test system: SK-OV-3 ovarian
# ACHN renal = test system: ACHN renal
# HOP-62 NSCLC = test system: HOP-62 NSCLC
# OVCAR-3 ovarian = test system: OVCAR-3 ovarian
# SR leukemia = test system: SR leukemia
# NCI/ADR-RES ovarian = test system: NCI/ADR-RES ovarian
# UACC-257 melanoma = test system: UACC-257 melanoma
# SF-268 CNS = test system: SF-268 CNS
smiles,measurement,setting,value
NCCCC[C@@H]1NC(=O)[C@H](CC(=O)O)NC(=O)CNC(=O)[C@H](CCCN=C(N)N)NC(=O)[C@@H](N)CSSC[C@@H](C(=O)O)NC(=O)[C@H](CC(=O)O)NC(=O)[C@@H]2CCCN2C(=O)CNC1=O,GI50,NCI-H522 lung,> 100 µM
same,TGI,NCI-H522 lung,> 100 µM
same,GI50,786-0 renal,> 100 µM
same,TGI,786-0 renal,> 100 µM
same,GI50,KM12 colon,> 100 µM
same,TGI,KM12 colon,> 100 µM
same,GI50,T-47D breast,> 100 µM
same,TGI,T-47D breast,> 100 µM
same,GI50,SK-MEL-2 melanoma,> 100 µM
same,TGI,SK-MEL-2 melanoma,> 100 µM
same,GI50,LOX IMVI melanoma,> 100 µM
same,TGI,LOX IMVI melanoma,> 100 µM
same,GI50,OVCAR-8 ovarian,> 100 µM
same,TGI,OVCAR-8 ovarian,> 100 µM
same,GI50,HL-60(TB) leukemia,> 100 µM
same,TGI,HL-60(TB) leukemia,> 100 µM
same,GI50,SN12C renal,> 100 µM
same,TGI,SN12C renal,> 100 µM
same,GI50,U251 glioblastoma,> 100 µM
same,TGI,U251 glioblastoma,> 100 µM
same,GI50,SK-MEL-5 melanoma,> 100 µM
same,TGI,SK-MEL-5 melanoma,> 100 µM
same,GI50,CAKI-1 renal,> 100 µM
same,TGI,CAKI-1 renal,> 100 µM
same,GI50,BT-549 breast,> 100 µM
same,TGI,BT-549 breast,> 100 µM
same,GI50,MDA-MB-231 breast,> 100 µM
same,TGI,MDA-MB-231 breast,> 100 µM
same,GI50,HOP-92 NSCLC,> 100 µM
same,TGI,HOP-92 NSCLC,> 100 µM
same,GI50,OVCAR-5 ovarian,> 100 µM
same,TGI,OVCAR-5 ovarian,> 100 µM
same,GI50,SF-539 CNS,> 100 µM
same,TGI,SF-539 CNS,> 100 µM
same,GI50,K-562 leukemia,> 100 µM
same,TGI,K-562 leukemia,> 100 µM
same,GI50,COLO 205 colon,> 100 µM
same,TGI,COLO 205 colon,> 100 µM
same,GI50,HCT-116 colon,> 100 µM
same,TGI,HCT-116 colon,> 100 µM
same,GI50,DU-145 prostate,> 100 µM
same,TGI,DU-145 prostate,> 100 µM
same,GI50,HCC-2998 colon,> 100 µM
same,TGI,HCC-2998 colon,> 100 µM
same,GI50,NCI-H23 lung,> 100 µM
same,TGI,NCI-H23 lung,> 100 µM
same,GI50,MALME-3M melanoma,93.7 µM
same,TGI,MALME-3M melanoma,> 100 µM
same,GI50,SK-MEL-28 melanoma,> 100 µM
same,TGI,SK-MEL-28 melanoma,> 100 µM
same,GI50,MDA-MB-435 melanoma,> 100 µM
same,TGI,MDA-MB-435 melanoma,> 100 µM
same,GI50,MOLT-4 leukemia,> 100 µM
same,TGI,MOLT-4 leukemia,> 100 µM
same,GI50,RXF 393 renal,> 100 µM
same,TGI,RXF 393 renal,> 100 µM
same,GI50,TK-10 renal,> 100 µM
same,TGI,TK-10 renal,> 100 µM
same,GI50,OVCAR-4 ovarian,> 100 µM
same,TGI,OVCAR-4 ovarian,> 100 µM
same,GI50,SF-295 CNS,> 100 µM
same,TGI,SF-295 CNS,> 100 µM
same,GI50,NCI-H226 lung,> 100 µM
same,TGI,NCI-H226 lung,> 100 µM
same,GI50,A498 renal,> 100 µM
same,TGI,A498 renal,> 100 µM
same,GI50,UO-31 renal,> 100 µM
same,TGI,UO-31 renal,> 100 µM
same,GI50,NCI-H322M lung,> 100 µM
same,TGI,NCI-H322M lung,> 100 µM
same,GI50,UACC-62 melanoma,80 µM
same,TGI,UACC-62 melanoma,> 100 µM
same,GI50,HCT-15 colon,> 100 µM
same,TGI,HCT-15 colon,> 100 µM
same,GI50,NCI-H460 NSCLC,> 100 µM
same,TGI,NCI-H460 NSCLC,> 100 µM
same,GI50,MDA-MB-468 breast,> 100 µM
same,TGI,MDA-MB-468 breast,> 100 µM
same,GI50,IGROV1 ovarian,> 100 µM
same,TGI,IGROV1 ovarian,> 100 µM
same,GI50,PC-3 prostate,> 100 µM
same,TGI,PC-3 prostate,> 100 µM
same,GI50,HT29 colon,> 100 µM
same,TGI,HT29 colon,> 100 µM
same,GI50,MCF7 breast,> 100 µM
same,TGI,MCF7 breast,> 100 µM
same,GI50,CCRF-CEM leukemia,> 100 µM
same,TGI,CCRF-CEM leukemia,> 100 µM
same,GI50,RPMI-8226 leukemia,> 100 µM
same,TGI,RPMI-8226 leukemia,> 100 µM
same,GI50,SNB-19 CNS,> 100 µM
same,TGI,SNB-19 CNS,> 100 µM
same,GI50,M14 melanoma,> 100 µM
same,TGI,M14 melanoma,> 100 µM
same,GI50,SW-620 colon,> 100 µM
same,TGI,SW-620 colon,> 100 µM
same,GI50,A549 NSCLC,> 100 µM
same,TGI,A549 NSCLC,> 100 µM
same,GI50,SK-OV-3 ovarian,> 100 µM
same,TGI,SK-OV-3 ovarian,> 100 µM
same,GI50,ACHN renal,> 100 µM
same,TGI,ACHN renal,> 100 µM
same,GI50,HOP-62 NSCLC,> 100 µM
same,TGI,HOP-62 NSCLC,> 100 µM
same,GI50,OVCAR-3 ovarian,> 100 µM
same,TGI,OVCAR-3 ovarian,> 100 µM
same,GI50,SR leukemia,> 100 µM
same,TGI,SR leukemia,> 100 µM
same,GI50,NCI/ADR-RES ovarian,> 100 µM
same,TGI,NCI/ADR-RES ovarian,> 100 µM
same,GI50,UACC-257 melanoma,> 100 µM
same,TGI,UACC-257 melanoma,> 100 µM
same,GI50,SF-268 CNS,> 100 µM
same,TGI,SF-268 CNS,> 100 µM
